Earlier results as cited in US8617906B2, “Identification and screening of triptolide target molecules” (priority 2004, dated 2013).

Tests used:
[1] = in vivo; cited from earlier work
[2] = cited from earlier work
[3] = tested on: human T cell lymphoma (Jurkat) cells; conditions: cited from earlier work
IL-2 = conditions: cited from earlier work
Akt/PKB = conditions: cited from earlier work
AML cells = conditions: cited from earlier work
[4] = 0.5-1 μg/kg; cited from earlier work
dopaminergic neurons = conditions: cited from earlier work
Thioredoxin reductase = Thioredoxin reductase (Homo sapiens, UniProt Q16881); conditions: cited from earlier work
Chain of Thioredoxin reductase (Q16881 151-649 limits assumed): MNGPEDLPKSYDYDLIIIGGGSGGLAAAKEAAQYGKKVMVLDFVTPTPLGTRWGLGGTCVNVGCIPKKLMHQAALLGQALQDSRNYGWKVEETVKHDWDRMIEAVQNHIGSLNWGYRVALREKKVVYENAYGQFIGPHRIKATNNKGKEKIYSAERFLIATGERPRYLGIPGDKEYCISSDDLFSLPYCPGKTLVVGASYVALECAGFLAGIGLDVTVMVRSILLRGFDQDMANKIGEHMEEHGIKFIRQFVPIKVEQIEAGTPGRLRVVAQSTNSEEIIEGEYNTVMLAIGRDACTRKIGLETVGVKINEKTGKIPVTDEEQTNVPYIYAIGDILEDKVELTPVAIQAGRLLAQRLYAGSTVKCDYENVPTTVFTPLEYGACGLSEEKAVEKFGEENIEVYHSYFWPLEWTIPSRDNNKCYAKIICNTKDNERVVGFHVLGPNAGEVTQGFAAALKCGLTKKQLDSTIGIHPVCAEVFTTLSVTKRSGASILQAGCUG

## 14-succinimide ester of triptolide
[1]
  bleomycin-induced PF: block bleomycin-induced PF

## CC(C)[C@]12O[C@H]1[C@@H]1O[C@]13[C@]1(O[C@H]1C[C@H]1C4=C(CC[C@@]13C)C(=O)OC4)[C@@H]2OC(=O)CCC(=O)[O-].[Na+] [PG490-88]
[2]
  conversion in vivo to triptolide: converting in vivo to triptolide

## CC(C)[C@]12O[C@H]1[C@@H]1O[C@]13[C@]1(O[C@H]1C[C@H]1C4=C(CC[C@@]13C)C(=O)OC4)[C@H]2F [PG763, 14-deoxy-14α-fluoro triptolide]
[3]
  cytotoxicity: cytotoxicity in human T cell lymphoma (Jurkat) cells
IL-2
  inhibition of IL-2: inhibition of IL-2

## Cc1cc(C)c(/C=C2\C(=O)Nc3ccccc32)[nH]1 [SU-5416]
Akt/PKB
  VEGF-stimulated phosphorylation of Akt/PKB: abolished
AML cells
  VEGF-induced colony formation / clonogenic response: abolished

## CC(C)[C@]1(O)[C@H](Cl)[C@@H]2O[C@]23[C@]2(O[C@H]2C[C@H]2C4=C(CC[C@@]23C)C(=O)OC4)[C@@H]1O [Tripchlorolide]
[4]
  TNF-α and IL-2 levels in the brain: attenuates the elevation of TNF-α and IL-2 levels in the brain
  dopamine depletion: attenuates dopamine depletion
  recovery of rats undergoing neurosurgery: improves recovery of rats undergoing neurosurgery
  sparing of SN neurons: significant sparing of SN neurons
  survival of dopaminergic neurons: increases the survival of dopaminergic neurons
Dopaminergic neurons
  dopaminergic neuron axonal elongation: promotes dopaminergic neuron axonal elongation
  protection from neurotoxic lesion induced by 1-methyl-4-phenylpyridinium ion: protects dopaminergic neurons from a neurotoxic lesion
Dopaminergic neurons; in situ hybridization
  brain-derived neurotrophic factor mRNA expression: stimulates brain-derived neurotrophic factor mRNA expression
[2]
  conversion in vivo to triptolide: prodrug of triptolide

## CC(=O)OC[C@H]1O[C@@H]([S-])[C@H](OC(C)=O)[C@@H](OC(C)=O)[C@@H]1OC(C)=O.CCP(CC)CC.[Au+] [auranofin]
Thioredoxin reductase
  thioredoxin reductase as drug target: target of auranofin
